US4004029A, “Compositions and method for treating epilepsy and convulsions” (The Upjohn Company, priority 1975, dated 1977)

Key:
[1] = system: electrically induced afterdischarge; experiment: Depression of electrically induced afterdischarges in the cat; format: in vivo, cat (mongrel cats of either sex); design: duration of afterdischarge: unit not given here; details: for duration of afterdischarge: intravenous
From the text: N. Strow and C. L. Mitchell, Electroenceph. […] Mongrel cats of either sex weighing 1.5-3.0 kg. are anesthetized with halothane. Two pair of stainless steel screw electrodes are placed bilaterally in the skull for stimulation and recording. The cats are paralyzed with decamethonium, artifically respired and after ninety minutes allowed to blow off the halothane. […] is elicited by electrical stimulation across one pair of electrodes (5 second train of 1 millisecond pulses at 50 pulses per second at 5.0-10 milliamps). Duration of discharge is recorded from the second electrode pair. Two groups of controls are taken before test drug administration and duration of […] measured after each dose of test drug.

[2] = system: seizures induced by electroshock; experiment: Protection against seizures induced by electroshock in rats; format: in vivo, rats (Sprague Dawley male albino); details: for ED50: Rattus norvegicus, ip, 150 milliamps
From the text: After about thirty minutes, the mice are shocked via ear clip electrodes, with a 60-cycle electrical current for 0.2 second, using a current intensity of 25 milliamps. The number of mice protected against tonic extensor seizures is used as a quantal response to calculate the Ed50, by the method of Spearman and […] (see D. J. Finney, "Statistical Methodology in Biological Assay", Hofner Publishing Co., New York, N.Y. 1952, page 524). For control purposes, a group of six mice is similarly treated with diphenylhydantoin and shocked. […] Protection against seizures induced by electroshock is also shown in rats (Sprague Dawley male albino rats weighting 150 to 300 grams each). The testing procedure is identical to that used in Example 9 supra. except that the electroshock current intensity is increased from 25 to 150 milliamps to accommodate this larger species.

in vivo = details: mouse, ip
[3] = system: electroshock-induced seizures (tonic extensor seizures); experiment: Protection against electroshock-induced seizures in mice; format: in vivo, mice (Cartworth farms, male albino); details: for ED50: 25 milliamps
From the text: Med. Chem. 8, 5-8, (1965). […] […] The number of mice protected against tonic extensor seizures is used as a quantal response to calculate the Ed50, by the method of Spearman and […] (see D. J. Finney, "Statistical Methodology in Biological Assay", Hofner Publishing Co., New York, N.Y. 1952, page 524). For control purposes, a group of six mice is similarly treated with diphenylhydantoin and shocked.

[4] = Mus musculus, ip, 0.5 h, absorption time 0.5 (Minutes)

Work on `Cc1cccc(C(=O)Nc2c(C)cccc2C)c1N` [N'-(2,6-dimethylphenyl)-2-amino-3-methylbenzamide] yielded a duration of afterdischarge ([1]; 2.5 mg./kg. total dose) of 31, a duration of afterdischarge ([1]; 5.0 mg./kg. total dose) of 27 and a duration of afterdischarge ([1]; 10.0 mg./kg. total dose) of 4. For the same compound, the duration of afterdischarge ([1]; 20.0 mg./kg. total dose) was 2, the “Relative Potency (shortening of afterdischarge)” value ([1]; relative to diphenylhydantoin on a milligram basis) was 1.42 and the ED50 ([2]; 0.5 h, absorption time 30 min) was 4.5 mg/kg. The ED50 ([2]; 1 h, absorption time 60 min) was 2.5 mg/kg, the ED50 ([2]; 4 h, absorption time 240 min) was 4.5 mg/kg and the ED50 ([2]; 8 h, absorption time 480 min) was 7.1 mg/kg. For the same compound, the “anticonvulsive potency compared with diphenylhydantoin” value ([2]; electroshock, milligram basis) was “more potent on a milligram basis than diphenylhydantoin”, the LD50 (in vivo) was 297 mg/kg and the ED50 ([3]; IP, absorption time 0.5 (Minutes), 0.5 min) was 5.6 mg/kg. For the same compound, the ED50 [3, 4] was 7 mg/kg, the ED50 ([3]; Mus musculus, po, 1 min, absorption time 1 (Minutes)) was 10 mg/kg and the ED50 ([3]; Mus musculus, po, 2 min, absorption time 2 (Minutes)) was 10 mg/kg. It also gave an ED50 ([3]; Mus musculus, po, 4 min, absorption time 4 (Minutes)) of 11 mg/kg, an ED50 ([3]; Mus musculus, po, 8 min, absorption time 8 (Minutes)) of 32 mg/kg and an ED50 ([3]; Mus musculus, po, 16 min, absorption time 16 (Minutes)) of 112 mg/kg. The ED50 ([3]; Mus musculus, po, 0.4 h, absorption time 24 (Minutes)) was 178 mg/kg, the ED50 ([3]; Mus musculus, po, 0.5 h, absorption time 0.5 (Minutes)) was 10 mg/kg and the duration of action ([3]; electroshock, Table I) was “long acting”.
`O=C1NC(=O)C(c2ccccc2)(c2ccccc2)N1` [diphenylhydantoin, reference compound] gave a duration of afterdischarge ([1]; 2.5 mg./kg. total dose) of 30, a duration of afterdischarge ([1]; 5.0 mg./kg. total dose) of 32 and a duration of afterdischarge ([1]; 10.0 mg./kg. total dose) of 9. The duration of afterdischarge ([1]; 20.0 mg./kg. total dose) was 4, the ED50 ([2]; 0.5 h, absorption time 30 min) was 8 mg/kg and the ED50 [3, 4] was 14 mg/kg.
